Paper PMC7313430, “Heme-Dependent ER Stress Apoptosis: A Mechanism for the Selective Toxicity of the Dihydroartemisinin, NSC735847, in Colorectal Cancer Cells” (Frontiers in Oncology, 2020)

Experiments:
HT29 cells [1] = test: MTS cell viability assay, colon cancer cells HT29; type: cell-based, human
Procedure: (§1) The human colon cancer cell lines HT29 and HCT116 were cultured in McCoy's 5A medium (Sigma Aldrich, St. Louis, MO) containing 10% heat-inactivated fetal bovine serum (FBS), penicillin (100 units/ml), and streptomycin (100 μg/ml). The non-tumorigenic colon cell line, FHC, was cultured in DMEM: F12 (1:1) medium supplemented with 10% heat inactivated FBS, 25 mM HEPES (Thermo Fisher Scientific Inc., IL), 10 ng/ml cholera toxin (Sigma Aldrich, St. Louis, MO), 0.005 mg/ml insulin (Thermo Fisher Scientific Inc., IL), 0.005 mg/ml, transferrin (Sigma Aldrich, St. Louis, MO), 100 ng/ml hydrocortisone (Sigma Aldrich, St. Louis, MO), 20 ng/mL human recombinant epidermal growth factor (Thermo Fisher Scientific Inc., IL), 100 units/ml penicillin, and 100 μg/ml streptomycin.
(§2) Cells were cultured in 96-well-plates for 48 h before treatment. Serum-free media containing different agents was added to the cells at the concentration and time period described in the figure legend. MTS reagent (Promega, Madison, WI) was then added to each well and the absorbance was measured at 495 nm as directed by the manufacturer. In the presence of MTS reagent, the absorbance reading is proportional to the number of viable cells. The half-maximal inhibitory concentration (IC50) of the tested compounds is the concentration that reduces the viability of cells by 50%. IC50 was calculated after 24 h of treatment ([30], [31]) as described previously ([32]–[34]) from dose-response curves (log drug concentration vs. percentage viability from untreated cells) generated by non-linear regression analysis with GraphPad Prism 5 software (GraphPad Software, San Diego, California).

[2] = test system: caspase 3/7 activity in HT29 cells; test: Caspase-Glo 3/7 activity assay in HT29; type: cell-based, human; conditions: 16 h, 1.25-10 μM
Procedure: The cells were plated in white-walled 96-well-plates and then they were cultured at 37°C for 48 h. Serum-free culture medium containing the appropriate concentration of different agents was added to the cells for the indicated period of time. Caspase-Glo 3/7 reagent (Promega, Madison, WI) was added to each well and luminescence was detected as directed by the manufacturer. The Caspase-Glo 3/7 kit measures the activity of the executioner caspases 3 and 7 using the luminogenic substrate (Z-DEVD-aminoluciferin) as substrate.

[3] = test system: reactive oxygen species in HT29 cells; test: Oxidative stress measurement with CM-H2DCFDA (DCF); type: cell-based, human; conditions: HT29, 10 μM, 8 h
Procedure: Oxidative stress was measured in cultured cells by using the probe, chloromethyl-2′,7′ dichlorodihydrofluorescein diacetate (CM-H2DCFDA or DCF) purchased from Life Technologies (Grand Island, NY). […] The cells were loaded with 5 μM DCF in phenol red-free, serum-free medium for 30 min and then the cells were treated with the appropriate drug for the indicated period of time. The cells were then trypsinized and resuspended in serum-containing, phenol red-free medium. The fluorescence of DCF was measured using an Accuri C6 flow cytometer (BD Accuri Cytometers, Ann Arbor, MI) at an excitation wavelength of 488 and emission of 533 ± 30 nm.

[4] = test system: intracellular iron in HT29 cells; test: Intracellular iron measurement (QuantiChrom kit); type: cell-based, human; conditions: HT29, 10 μM, 4, 8 and 16 h
Procedure: HT29 cells were plated in 100 mm tissue culture plates for 48 h and then the cells were treated as indicated in the text. The cells were washed twice with PBS and then 100 μl triton lysis buffer (without EDTA) was added. The intracellular iron concentrations were determined using the QuantiChrom iron assay kit (BioAssay Systems; #ab83366) following the manufacturer's instructions. Briefly, iron standards of different concentrations were prepared by diluting the iron standard provided with the kit with distilled water. The diluted standards (50 μL) and sample cell lysates (50 μL) were transferred into a clear flat bottom 96-well-plate. Working reagent was prepared by mixing 20 volumes of reagent A, 1 volume reagent B and 1 volume reagent C provided with the kit. The working reagent (200 μL) was then added to the standard and sample wells. After mixing, the plate was incubated 40 min at room temperature and then the absorbance was measured at 590 nm. The iron concentration in each sample was calculated as described in the kit protocol.

FHC cells [5] = test: MTS cell viability assay, non-tumorigenic colon cells; type: cell-based; conditions: Homo sapiens, 24 h treatment
Procedure: as §1, §2

FHC cells [6] = test: TUNEL assay in FHC; type: cell-based, human; conditions: 5 or 10 μM, 16 h
Procedure: (§3) HT29, HCT116, and FHC cells were cultured in chamber slides and treated with 5 μM NSC735847, 10 μM NSC735847, or vehicle (0.1% DMSO). The cells were then washed with PBS and fixed in 4% paraformaldehyde before detection of double stranded DNA breaks that are characteristic of apoptosis. Terminal deoxynucleotidyl transferase dUTP nick end labeling (TUNEL) assays were performed as described by the manufacturer (in situ Cell Death Detection Kit; Roche; Indianapolis, IN). Briefly, fixed cells were incubated in permeabilization solution (0.1% Triton X-100 in 0.1% sodium citrate) for 2 min on ice. The slides were rinsed twice with PBS, 50 μL TUNEL reaction mixture was added, and then the samples were incubated for 1 h at 37°C in the dark. The slides were overlayed with antifade mounting medium containing DAPI and then visualized using a Zeiss LSM 700 confocal microscope system (Carl Zeiss Microscopy, LLC, White Plains, NY).

HT29 cells [7] = test: TUNEL assay in HT29; type: cell-based, human; conditions: 5 or 10 μM, 16 h
Procedure: as §3

HCT116 cells = test: MTS cell viability assay, colon cancer cells HCT116; type: cell-based, human
Procedure: as §1, §2

[8] = test system: ferritin H mRNA in HT29 cells; test: Ferritin mRNA qRT-PCR; type: cell-based, human; conditions: HT29, 10 μM, 4, 8 and 16 h
Procedure: Total RNA was extracted from HT29 cells by utilizing TRI reagent (Sigma Aldrich, St. Louis, MO, USA) and then it was purified with the Direct-zol RNA MiniPrep Kit (Zymo Research, Irvine, CA, USA). cDNA was synthesized from purified RNA by using the iScript cDNA Synthesis Kit (Bio-Rad laboratories, Hercules, CA, USA). qRT-PCR was performed by using the iTaq Universal SYBR Green Supermix (Bio-Rad laboratories, Hercules, CA, USA) with the BioRad CFX96 thermocycler (Bio-Rad laboratories, Hercules, CA, USA). The specific primer pair sequences were 5′-[…]-3′ and 5′-[…]-3′ for β-actin; and 5′-[…]-3′ and 5′-[…]-3′ for ferritin H (heavy-chain). Cycle threshold values were normalized to the internal beta-actin control. The ratio of fold change was calculated using the Pfaffl method ([37]).

[9] = test system: subcutaneous or orthotopic non-small cell lung cancer lesions; conditions: athymic nude mice with subcutaneous or orthotopic non-small cell lung cancer lesions; cited from earlier work
[10] = MTS, 24 h, single agents or combinations

CC1CCC2C(C)C(OCC(COC3OC4OC5(C)CCC6C(C)CCC(C3C)C46OO5)=NO)OC3OC4(C)CCC1C32OO4 (stereo not drawn) [compound (3)]
IC50 (HT29 cells [1]; Homo sapiens, HT-29, MTS viability, 24 h treatment): 11 µM | cell death / survival of HT29 cells (HT29 cells [1]; [10]): induced death in a concentration-dependent manner | caspase 3/7 activity in HT-29 [2]: significantly increased | intracellular oxidative stress (DCF fluorescence) [3]: increased the intracellular oxidative stress levels | cellular free iron [4]: time-dependent increase in cellular free iron | IC50 (FHC cells [5]): > 25 µM | TUNEL positive cells in FHC (FHC cells [6]): absent | TUNEL positive cells in HT29 (HT29 cells [7]): increased the quantity of TUNEL positive cells | IC50 (HCT116 cells; Homo sapiens, HCT-116, MTS viability, 24 h treatment): 11.8 µM | cell death / survival of HCT116 cells (HCT116 cells; [10]): induced death in a concentration-dependent manner | ferritin mRNA expression [8]: upregulated the expression of ferritin mRNA | body weight of tumor-bearing mice [9]: did not cause significant changes in the body weight
